The target of the experiment is T1, human GalR3 receptor (Homo sapiens, UniProt O60755).
T1 construct: expressed in transfected cells; host or cells: mouse fibroblast LM(tk-) cells, stably transfected; membranes
T1 sequence (O60755 1-368): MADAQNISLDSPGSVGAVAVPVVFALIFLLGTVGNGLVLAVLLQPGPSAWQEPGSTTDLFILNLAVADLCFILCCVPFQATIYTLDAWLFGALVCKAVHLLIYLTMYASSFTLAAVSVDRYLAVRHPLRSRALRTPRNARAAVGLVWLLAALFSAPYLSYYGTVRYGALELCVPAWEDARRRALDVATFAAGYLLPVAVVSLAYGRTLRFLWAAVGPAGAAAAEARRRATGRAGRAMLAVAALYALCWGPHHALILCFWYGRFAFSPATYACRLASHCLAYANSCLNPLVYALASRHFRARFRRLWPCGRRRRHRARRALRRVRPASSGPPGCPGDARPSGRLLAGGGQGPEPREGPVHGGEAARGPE
Description: Radioligand binding assay at cloned human GalR3 receptor. To be noted: Binding Data; membranes from LM(tk-) cells stably transfected with the human GalR3 receptor. The protocol:
LM(tk-) cells were stably transfected with the human GalR3 receptor. cDNAs for the human and rat GalR3 receptors were transfected with a G-418 resistant gene into the mouse fibroblast LM(tk-) cell line by a calcium phosphate transfection method (Cullen, 1987). Membranes were harvested from stably transfected LM(tk-) cells. Adherent cells were washed twice in ice-cold phosphate buffered saline (138 mM NaCl, 8.1 mM Na2HPO4, 2.5 mM KCl, 1.2 mM KH2PO4, 0.9 mM CaCl2, 0.5 mM MgCl2, pH 7.4) and lysed by sonication in ice-cold sonication buffer (20 mM Tris-HCl, 5 mM EDTA, pH 7.7). Large particles and debris were cleared by low speed centrifugation (200×g, 5 min, 4° C.). Membranes were collected from the supernatant fraction by centrifugation (32,000×g, 18 min, 4° C.), washed with ice-cold hypotonic buffer, and collected again by centrifugation (32,000×g, 18 min, 4° C.). The final membrane pellet was resuspended by sonication into a small volume of ice-cold binding buffer (˜1 ml for every 5 plates: 10 mM NaCl, 20 mM HEPES, 0.22 mM KH2PO4, 1.26 mM CaCl2, 0.81 mM MgSO4, pH 7.4). Protein concentration was measured by the Bradford method (Bradford, 1976) using Bio-Rad Reagent, with bovine serum albumin as a standard. Membranes were held on ice for up to one hour and used fresh, or flash frozen and stored in liquid nitrogen. Membranes were prepared similarly from CHO cells. The methods to obtain the cDNA of the receptors, express said receptors in heterologous systems, and carry out assays to determine binding affinity are described as follows. Binding assays were performed according to the following published method: human GALR3 (PCT International Publication No. WO 02/060392).

The structures appear in SMILES notation.

For orientation: Ki means a dissociation constant, usually derived from enzyme kinetics or from competition with a known ligand. The low end stands for a stronger hold on the target, the high end for a looser hold on the target.

Molecule `CN(C)c1cccc(Nc2cc(N(C)C)nc(N3CCN(c4ccccn4)CC3)n2)c1` [Example 28, N^4-[3-(DIMETHYLAMINO)PHENYL]-N^6,N^6-DIMETHYL-2-[4-(2-PYRIDINYL)-1-PIPERAZINYL]-4,6-PYRIMIDINEDIAMINE] registered a Ki of 417 nM.
Then `CN(C)c1cc(Nc2ccc(Cl)c(Cl)c2)nc(N2CCN(c3ccccc3F)CC2)n1` [Example 29, N^4-(3,4-DICHLOROPHENYL)-2-[4-(2-FLUOROPHENYL)-1-PIPERAZINYL]-N^6,N^6-DIMETHYL-4,6-PYRIMIDINEDIAMINE], with 27 nM.
Then `CN(C)c1cc(Nc2ccc(SC(F)(F)F)c(Cl)c2)nc(N2CCN(c3ccc(Cl)cc3)CC2)n1` [Example 30, 2-[4-(4-CHLOROPHENYL)-1-PIPERAZINYL]-N^4-{3-CHLORO-4-[TRIFLUOROMETHYL) SULFANYL]PHENYL}-N^6,N^6-DIMETHYL-4,6-PYRIMIDINEDIAMINE], with 138 nM.
Molecule `CN(C)c1cc(Nc2cccc(OCc3ccccc3)c2)nc(N2CCN(c3ccc(Cl)cc3)CC2)n1` [Example 31, N^4-[3-(BENZYLOXY)PHENYL]-2-[4-(4-CHLOROPHENYL)-1-PIPERAZINYL]-N^6,N^6-DIMETHYL-4,6-PYRIMIDINEDIAMINE] gave a Ki of 26 nM.
Then `Cc1ccc(Nc2cc(N(C)C)nc(N3CCN(c4cccc(Cl)c4)CC3)n2)cc1C` [Example 32, 2-[4-(3-CHLOROPHENYL)-1-PIPERAZINYL]-N^4-(3,4-DIMETHYLPHENYL)-N^6,N^6-DIMETHYL-4,6-PYRIMIDINEDIAMINE], with 97 nM; and `CCNc1cccc(Nc2cc(N(C)C)nc(N3CCN(Cc4ccccc4)CC3)n2)c1` [Example 33, 2-(4-BENZYL-1-PIPERAZINYL)-N^4-[3-(ETHYLAMINO)PHENYL]N^6,N^6-DIMETHYL-4,6-PYRIMIDINEDIAMINE], with 942 nM; and `C[C@@H]1CN(c2nc(Nc3cccc(OCc4ccccc4)c3)cc(N(C)C)n2)C[C@H](C)O1` [Example 34, N^4-[3-(BENZYLOXY)PHENYL]-2-[CIS-2,6-DIMETHYLMORPHOLINYL]-N^6,N^6-DIMETHYL-4,6-PYRIMIDINEDIAMINE], with 32 nM.
Then `CN(C)c1cc(Nc2cccc(OCc3ccccc3)c2)nc(N(C)CC2CCCO2)n1` (centres unmarked) [Example 35, N^4-[3-(BENZYLOXY)PHENYL]-N^2,N^6,N^6-TRIMETHYL-N^2-(TETRAHYDRO-2-FURANYLMETHYL)-2,4,6-PYRIMIDINETRIAMINE], with 42 nM.
For `CN(C)c1cc(Nc2cccc(OCc3ccccc3)c2)nc(N2CCCCC2)n1` [Example 36, N^4-[3-(BENZYLOXY)PHENYL]-N^6,N^6-DIMETHYL-2-(1-PIPERIDINYL)-4,6-PYRIMIDINEDIAMINE], the affinity, expressed as Ki, was 23 nM.
With `CN(C)c1cc(Nc2cccc(OCc3ccccc3)c2)nc(N2CCCC2)n1` [Example 37, N^4-[3-(BENZYLOXY)PHENYL]-N^6,N^6-DIMETHYL-2-(1-PYRROLIDINYL)-4,6-PYRIMIDINEDIAMINE], the inhibitory constant (Ki) was 59 nM.
The molecule `CC1CC(C)CN(c2nc(Nc3cccc(OCc4ccccc4)c3)cc(N(C)C)n2)C1` (centres unmarked) [Example 38, N^4-[3-(BENZYLOXY)PHENYL]-2-(3,5-DIMETHYL-1-PIPERIDINYL)-N^6,N^6-DIMETHYL-4,6-PYRIMIDINEDIAMINE] registered a Ki of 15 nM.
`Cc1ccc(Nc2cc(N(C)C)nc(NCc3ccccc3)n2)cc1` [Example 39, N^2-BENZYL-N^4,N^4-DIMETHYL-N^6-(4-METHYLPHENYL)-2,4,6-PYRIMIDINE TRIAMINE] gave an inhibition constant Ki of 114 nM.
Then `CCNc1cc(Nc2cc(N(C)C)nc(N3CCN(Cc4ccccc4)CC3)n2)ccc1C` [Example 40, 2-(4-BENZYL-1-PIPERAZINYL)-N^4-[3-(ETHYLAMINO)-4-METHYLPHENYL]-N^6,N^6-DIMETHYL-4,6-PYRIMIDINEDIAMINE], with 137 nM; and `CN(C)c1cc(Nc2cccc(OCc3ccccc3)c2)nc(N2CCN(c3ncccn3)CC2)n1` [Example 41, N-[3-(BENZYLOXY)PHENYL]-N^6,N^6-DIMETHYL-2-[4-(2-PYRIMIDINYL)-1-PIPERAZINYL]-4,6-PYRIMIDINEDIAMINE], with 14 nM.
Then `CN(C)c1cc(Nc2cccc(OCc3ccccc3)c2)nc(N2CCc3ccccc32)n1` [Example 42, N^4-[3-(BENZYLOXY)PHENYL]-2-(2,3-DIHYDRO-1H-INDOL-1-YL)-N^6,N^6-DIMETHYL-4,6-PYRIMIDINEDIAMINE], with 91 nM.
In turn, `Clc1ccc(Nc2cc(N3CCN(c4ccccn4)CC3)nc(N3CCN(c4ccccn4)CC3)n2)cc1Cl` [Example 43, N-(3,4-DICHLOROPHENYL)-2,6-BIS[4-(2-PYRIDINYL)-1-PIPERAZINYL]-4-PYRIMIDINAMINE] came in with a Ki of 60 nM.
Turning to `CCN(CC)c1cc(C)ccc1Nc1cc(N(C)C)nc(N2CCN(c3ccccn3)CC2)n1` [Example 44, N^4-[2-(DIETHYLAMINO)-4-METHYLPHENYL]-N^6,N^6-DIMETHYL-2-[4-(2-PYRIDINYL)-1-PIPERAZINYL]-4,6-PYRIMIDINEDIAMINE], affinity was put at a Ki of 314 nM.
Then `Cc1ccc(Nc2cc(N(C)C)nc(N3CCN(c4ccccn4)CC3)n2)c(NC(C)C)c1` [Example 45, N^4-[2-(ISOPROPYLAMINO)-4-METHYLPHENYL]-N^6,N^6-DIMETHYL-2-[4-(2-PYRIDINYL)-1-PIPERAZINYL]-4,6-PYRIMIDINEDIAMINE], with 506 nM; and `Cc1ccc(Nc2cc(N(C)C)nc(N3CCN(c4c(C(F)(F)F)ccc[n+]4[O-])CC3)n2)cc1` [Example 46, N^4,N^4-DIMETHYL-N^6-(4-METHYLPHENYL)-2-{4-[l-OXIDO-3-(TRIFLUOROMETHYL)-2-PYRIDINYL]-1-PIPERAZINYL}-4,6-PYRIMIDINEDIAMINE], with 264 nM; and `CCn1ccc2ccc(Nc3cc(N(C)C)nc(N4CCN(c5ccccn5)CC4)n3)cc21` [Example 47, N^4-(1-ETHYL-1H-INDOL-6-YL)-N^6,N^6-DIMETHYL-2-[4-(2-PYRIDINYL)-1-PIPERAZINYL]-4,6-PYRIMIDINEDIAMINE], with 351 nM.
As for `Cc1ccc(Nc2cc(N(C)C)nc(N3C[C@@H](C)O[C@@H](C)C3)n2)cc1N(C)Cc1ccccc1` [Example 49, N^4-{3-[BENZYL(METHYL)AMINO]-4-METHYLPHENYL}-2-[CIS-2,6-DIMETHYIMORPHOLINYL]-N^6,N^6-DIMETHYL-4,6-PYRIMIDINEDIAMINE], the Ki turned out to be 103 nM.
For the molecule `CCC(C)Nc1cc(Nc2cc(N(C)C)nc(N3C[C@@H](C)O[C@@H](C)C3)n2)ccc1C` (stereo partly drawn) [Example 50, N^4-[3-(SEC-BUTYLAMINO)-4-METHYLPHENYL]-2-[CIS-2,6-DIMETHYL MORPHOLINYL]-N^6,N^6-DIMETHYL-4,6-PYRIMIDINEDIAMINE], affinity was put at a Ki of 312 nM.
`C[C@@H]1CN(c2nc(Nc3ccc(Cl)c(Cl)c3)cc(N(C)C)n2)C[C@H](C)O1` [Example 51, N^4-(3,4-DICHLOROPHENYL)-2-(CIS-2,6-DIMETHYLMORPHOLINYL)-N^6,N^6-DIMETHYL-4,6-PYRIMIDINEDIAMINE] yielded a Ki of 81 nM.
The same measure for `Cc1ccc(Nc2cc(N3CCN(c4ncccn4)CC3)nc(N3C[C@@H](C)O[C@@H](C)C3)n2)cc1` [Example 52, 2-(CIS-2,6-DIMETHYLMORPHOLINYL)-N-(4-METHYLPHENYL)-6-[4-(2-PYRIMIDINYL)-1-PIPERAZINYL]-4-PYRIMIDINAMINE]: 117 nM; for `O=C1CCN(c2cc(Nc3ccc(Cl)c(Cl)c3)nc(N3CCN(Cc4ccccc4)CC3)n2)CC1` [Example 53, 1-[2-(4-BENZYL-1-PIPERAZINYL)-6-(3,4-DICHLOROANILINO)-4-PYRIMIDINYL]-4-PIPERIDINONE]: 36 nM.
The same measure for `CN(C)c1cc(Nc2ccc(Cl)c(Cl)c2)nc(N2CCN(c3ccc(Cl)cc3)CC2)n1` [Example 54, 2-[4-(4-CHLOROPHENYL)-1-PIPERAZINYL]-N-(3,4-DICHLOROPHENYL)-N^6,N^6-DIMETHYL-4,6-PYRIMIDINEDIAMINE]: 150 nM.

For the origin of these results see US6936607B2, “2,4,6-Triaminopyrimidines for the treatment of depression and/or anxiety” (H. Lunobeck A/S, priority 2002, dated 2005).
